Measured values taken from patent publication US20180298405A1, “METHODS AND COMPOSITIONS TO INCREASE HUMAN SOMATIC CELL NUCLEAR TRANSFER (SCNT) EFFICIENCY BY REMOVING HISTONE H3-LYSINE TRIMETHYLATION, AND DERIVATION OF HUMAN NT-ESC” (CHILDREN'S MEDICAL CENTER CORPORATION, priority 2015, published 2018).
Several values for one entry are separate records, joined by “and”; a condition that tells them apart may be missing. Equal entries are not always repeated.

Tests used:
human SCNT embryos = experiment: Preimplantation development of KDM4A-assisted human SCNT embryos; assay type: cell-based; conditions: for embryos reaching the blastocyst stage: day 6; for embryos developed to the expanded blastocyst stage: day 7
Method: All MII stage human oocytes with distinctive 1st polar bodies were enucleated under an inverted microscope equipped with a Poloscope (Oosight®, Cambridge Research & Instrumentation). The enucleation and nuclear donor cell fusion were carried out in the presence of caffeine (1.25 mM). For enucleation, oocytes were pre-incubated in Global HTF medium with Hepes (Life Global) containing 0.5 μg/ml cytochalasin B and caffeine (1.25 mM) for 5 minutes. Then, the spindle complex was removed using a PIEZO actuator (Primetech, Japan). Dermal fibroblast cells resuspended in a drop containing HVJ-E extract (Cosmo Bio, USA) were inserted into the perivitelline space of the enucleated oocytes. The reconstructed oocytes were kept in the manipulation medium containing caffeine (1.25 mM) until the cell fusion was confirmed, and then the reconstructed oocytes were transferred into Global medium 10% SPS, and incubated for 1-1.5 hours before activation. Activation was carried out by applying electropulses (2×50 μs DC pulses, 2.7 kV/cm) in 0.25M d-sorbitol buffer and 6-DMAP (2 mM, 4 hrs) as previously described (Tachibana et al., 2013). The activated embryos were transferred to Global 10% SPS medium supplemented with Trichostatin A (TSA, 10 nM, Sigma) for 12 hrs, then the embryos were transferred to Global 10% FBS without TSA and cultured for up to 7 days in an incubator with atmosphere of 6% CO2/5% O2/89% N2 at 37° C. The culture medium was changed on day 3.
For mRNA injection, the activated SCNT embryos were washed and cultured in Global 10% SPS for 1 hr before the KDM4A mRNA injection. Approximately 10 pl of KDM4A mRNA were injected into the SCNT embryos at 5 hours after activation in Hepes-HTF 10% SPS medium using a PIEZO actuator as described previously (Matoba et al., 2014). More details on donor cell preparation, mRNA preparation, RNA-seq and other procedures can be found in the Supplemental Experimental Procedures.
In vitro transcription was performed as described previously (Matoba et al., 2014). Briefly, full length human KDM4A/JHDM3A cDNA was cloned into a pcDNA3.1 plasmid containing poly(A)83 at the 3′ end of cloning site. The catalytic defective mutant form of KDM4A (H188A) was generated using PrimeSTAR mutagenesis kit (TAKARA # R045A). mRNA was synthesized using the mMESSAGE mMACHINE T7 Ultra Kit (Life technologies # AM1345). The synthesized mRNA was dissolved in nuclease-free water. The concentration of mRNA was measured by NanoDrop ND-1000 spectrophotometer (NanoDrop Technologies). Aliquots of mRNA were stored at −80° C. until use.
Ovarian stimulation was carried out as described previously (Chung et al., 2014). Briefly, a combination of human recombinant follicle-stimulating hormone (rFSH, 225-3001U, Merck) and human menopausal gonadotropin (Menopur 751U, Ferring) were used to stimulate ovary for 9-11 days with GnRH antagonist (Ganirelix acetate, Merck) suppression. Lupron 4 mg was used to mimic the LH surge when 1 or 2 follicles reached 18 mm in diameter. All medications were administered through subcutaneous injections. Transvaginal oocyte retrieval was performed approximately 36 hours after the Lupron injection. The collected COCs were denuded with 5080 IU/ml hyaluronidase (Sigma-Aldrich) within 1-2 hours after retrieval. Then, they were kept in Global medium supplemented with 10% serum protein supplement (SPS; Cooper Surgical) (IVF Online) until use.
The procedures for somatic nuclear donor cell preparation are essentially the same as previously described (Chung et al., 2014). Briefly, the skin explant was mechanically minced and treated with collagenase (type I, 200 unit/ml, Worthington-biochem) in DMEM supplemented with 10 μg/ml penicillin-streptomycin solution to dissociate the skin tissue. […]

human SCNT blastocysts = experiment: Derivation of human NTK-ESCs from KDM4A-assisted SCNT blastocysts; assay type: cell-based
Method: All expanded blastocysts were treated with acid Tyrode solution to remove the zona pellucida, then the entire blastocysts (without removing trophectoderm) were plated onto mitotically-inactivated mouse fibroblasts (MEFs, Global Stem Inc.) in knockout-DMEM supplemented with Knockout Serum Replacement (10% SR, Invitrogen), FBS (10% Hyclone), bFGF (30 ng/ml), human LIF (2000 units/ml, Sigma-Aldrich), and ROCK inhibitor (1 uM, Sigma-Aldrich). The derivation medium was not changed for the next 3 days, then 1/2 medium was replaced with fresh medium without the ROCK inhibitor daily as previously described (Chung et al., 2008). After 3 passages, the amount of FBS was reduced to 2%, replacing it with SR. After 5 passages, the ES cells were cultured in DMEM/F12 supplemented with FGF (8 ng/ml, Invitrogen), SR (18%, Invitrogen), and FBS (2% Hyclone). After the 10 passages, the ES cells were maintained in DMEM/F12 supplemented with FGF (8 ng/ml) and 20% SR.

[1] = pooled four oocyte donors, per 2-cell
[2] = pooled four oocyte donors, per 2-cell, listed as KDM4A

Substance: KDM4A mRNA: in vitro transcribed mRNA of full length human KDM4A/JHDM3A cDNA, an H3K9me3 demethylase (SEQ ID NO: 1)
- oocyte donors whose oocytes supported blastocyst formation (human SCNT embryos; four oocyte donors tested, TSA present): all four donors tested supported blastocyst formation
- embryos reaching the blastocyst stage (human SCNT embryos; [1]): 26.8% and 27%
- embryos reaching the blastocyst stage (human SCNT embryos; [2]): 26.8%
- embryos developed to the expanded blastocyst stage (human SCNT embryos; [1]): 14.3%
- embryos developed to the expanded blastocyst stage (human SCNT embryos; [2]): 14% and 14.3%
- developmental rate to 8-cell stage (human SCNT embryos; [1]): 71.4%
- developmental rate to morula stage (human SCNT embryos; [1]): 32%
- developmental rate to morula stage (human SCNT embryos; [2]): 32.1%
- cleavage efficiency to form 2-cell embryos (human SCNT embryos; pooled oocytes of four donors, AMD patient fibroblast donors, mRNA injected 5 h after activation, per 1-cell): 88.9%
- increase in hSCNT embryos developing into blastocysts (human SCNT embryos; versus control hSCNT embryos (4.2%)): greater than 20%
- increase in embryos reaching expanded blastocyst stage (human SCNT embryos; versus non-treated human SCNT embryos (0%)): 14%
- stable NT-ESC lines derived (human SCNT blastocysts; after five passages, from eight expanded blastocysts): four stable NT-ESC lines
- expanded blastocysts attached to MEF feeder cells and initiated outgrowth (human SCNT blastocysts; of eight expanded blastocysts): Seven out of the eight
